Experimental findings from US8802688B2, “Substituted acetyl-coa carboxylase inhibitors” (Pfizer Inc., priority 2011, dated 2014) are described below.

Test [1] concerns the target T1, recombinant human ACC2 (rhACC2) (Homo sapiens, UniProt O00763, V2141I).
T1 construct: a full length Cytomax clone of ACC2 was purchased from Cambridge Bioscience Limited; made in house; host or cells: CHO cells, tetracycline-induced (PcDNA5 FRT TO-TOPO)
The test is described as follows: recombinant hACC2 Transcreener ADP detection FP assay. The following applies: 50 μM ATP, 30 μM acetyl-CoA. The class given is biochemical. The protocol: (§1) For example direct inhibition of ACC activity, for the compound of Formula (I) was determined using preparations of recombinant human ACC1 (rhACC1) and recombinant human ACC2 (rhACC2). Representative sequences of the recombinant human ACC1 and ACC2 that can be used in the assay are provided herein as SEQ ID NO. 1 and SEQ. ID NO. 2, respectively.
[3] Preparation of rhACC2. Human ACC2 inhibition was measured using purified recombinant human ACC2 (hrACC2). Briefly, a full length Cytomax clone of ACC2 was purchased from Cambridge Bioscience Limited and was sequenced and subcloned into PcDNA5 FRT TO-TOPO (Invitrogen, Carlsbad, Calif.). The ACC2 was expressed in CHO cells by tetracycline induction and harvested in 5 liters of DMEM/F12 with glutamine, biotin, hygromycin and blasticidin with 1 μg/mL tetracycline (Invitrogen, Carlsbad, Calif.). The conditioned medium containing ACC2 was then applied to a Softlink Soft Release Avidin column (Promega, Madison, Wis.) and eluted with 5 mM biotin. 4 mgs of ACC2 were eluted at a concentration of 0.05 mg/mL (determined by A280) with an estimated purity of 95% ([…]). The purified ACC2 was dialyzed in 50 mM Tris, 200 mM NaCl, 4 mM DTT, 2 mM EDTA, and 5% glycerol. The pooled protein was frozen and stored at −80° C., with no loss of activity upon thawing. For measurement of ACC2 activity and assessment of ACC2 inhibition, test compounds were dissolved in DMSO and added to the rhACC2 enzyme as a 5× stock with a final DMSO concentration of 1%.
[4] Measurement of human ACC2 inhibition. hACC2 was assayed in a Costar #3676 (Costar, Cambridge, Mass.) 384-well plate using the Transcreener ADP detection FP assay kit (Bellbrook Labs, Madison, Wis.) using the manufacturer's recommended conditions for a 50 uM ATP reaction. The final conditions for the assay were 50 mM HEPES, pH 7.2, 5 mM MgCl2, 5 mM tripotassium citrate, 2 mM DTT, 0.1 mg/mL BSA, 30 μM acetyl-CoA, 50 μM ATP, and 8 mM KHCO3. Typically, a 10 μl reaction was run for 50 min at 25° C., and 10 μl of Transcreener stop and detect buffer was added and the combination incubated at room temp for an additional 1 hour. The data was acquired on an Envision Fluorescence reader (Perkinelmer) using a 620 excitation Cy5 FP general dual mirror, 620 excitation Cy5 FP filter, 688 emission (S) and a 688 (P) emission filter.
(§2) The results using the recombinant hACC1 and recombinant hACC2 Transcreener assays described above are summarized in the table below for the Compounds of Formula (I) exemplified in the Examples above.

Test [2] has as its target T2, recombinant human ACC1 (rhACC1) (Homo sapiens, UniProt Q13085, DEL44-44).
T2 construct: recombinant baculovirus containing full length human ACC1 cDNA; made in house; host or cells: SF9 insect cells, recombinant baculovirus
The test can be described thus: recombinant hACC1 Transcreener ADP detection FP assay. Particulars: 50 μM ATP, 30 μM acetyl-CoA. Format: biochemical. As to the method: as §1
[1] Preparation of rhACC1. Two liters of SF9 cells, infected with recombinant baculovirus containing full length human ACC1 cDNA, were suspended in ice-cold lysis buffer (25 mM Tris, pH 7.5; 150 mM NaCl; 10% glycerol; 5 mM imidazole (EMD Bioscience; Gibbstown, N.J.); 2 mM TCEP (BioVectra; Charlottetown, Canada); Benzonase nuclease (10000 U/100 g cell paste; Novagen; Madison, Wis.); EDTA-free protease inhibitor cocktail (1 tab/50 mL; Roche Diagnostics; Mannheim, Germany). Cells were lysed by 3 cycles of freeze-thaw and centrifuged at 40,000×g for 40 minutes (4° C.). Supernatant was directly loaded onto a HisTrap FF crude column (GE Healthcare; Piscataway, N.J.) and eluted with an imidazole gradient up to 0.5 M over 20 column volumes (CV). ACC1-containing fractions were pooled and diluted 1:5 with 25 mM Tris, pH 7.5, 2 mM TCEP, 10% glycerol and direct loaded onto a CaptoQ (GE Healthcare) column and eluted with an NaCl gradient up to 1 M over 20 CV's. Phosphate groups were removed from purified ACC1 by incubation with lambda phosphatase (100 U/10 μM target protein; New England Biolabs; Beverly, Mass.) for 14 hours at 4° C.; okadaic acid was added (1 μM final concentration; Roche Diagnostics) to inhibit the phosphatase. Purified ACC1 was exchanged into 25 mM Tris, pH 7.5, 2 mM TCEP, 10% glycerol, 0.5 M NaCl by 6 hour dialysis at 4° C. Aliquots were prepared and frozen at −80° C.
[2] Measurement of rhACC1 inhibition. hACC1 was assayed in a Costar #3676 (Costar, Cambridge, Mass.) 384-well plate using the Transcreener ADP detection FP assay kit (Bellbrook Labs, Madison, Wis.) using the manufacturer's recommended conditions for a 50 μM ATP reaction. The final conditions for the assay were 50 mM HEPES, pH 7.2, 10 mM MgCl2, 7.5 mM tripotassium citrate, 2 mM DTT, 0.1 mg/mL BSA, 30 μM acetyl-CoA, 50 μM ATP, and 10 mM KHCO3 Typically, a 10 μl reaction was run for 120 min at 25° C., and 10 μl of Transcreener stop and detect buffer was added and the combination incubated at room temp for an additional 1 hour. The data was acquired on a Envision Fluorescence reader (Perkinelmer) using a 620 excitation Cy5 FP general dual mirror, 620 excitation Cy5 FP filter, 688 emission (S) and a 688 (P) emission filter.
as §2

In general, IC50 refers to the concentration needed to halve the response being measured.

T1 sequence (O00763 whole entry V2141I): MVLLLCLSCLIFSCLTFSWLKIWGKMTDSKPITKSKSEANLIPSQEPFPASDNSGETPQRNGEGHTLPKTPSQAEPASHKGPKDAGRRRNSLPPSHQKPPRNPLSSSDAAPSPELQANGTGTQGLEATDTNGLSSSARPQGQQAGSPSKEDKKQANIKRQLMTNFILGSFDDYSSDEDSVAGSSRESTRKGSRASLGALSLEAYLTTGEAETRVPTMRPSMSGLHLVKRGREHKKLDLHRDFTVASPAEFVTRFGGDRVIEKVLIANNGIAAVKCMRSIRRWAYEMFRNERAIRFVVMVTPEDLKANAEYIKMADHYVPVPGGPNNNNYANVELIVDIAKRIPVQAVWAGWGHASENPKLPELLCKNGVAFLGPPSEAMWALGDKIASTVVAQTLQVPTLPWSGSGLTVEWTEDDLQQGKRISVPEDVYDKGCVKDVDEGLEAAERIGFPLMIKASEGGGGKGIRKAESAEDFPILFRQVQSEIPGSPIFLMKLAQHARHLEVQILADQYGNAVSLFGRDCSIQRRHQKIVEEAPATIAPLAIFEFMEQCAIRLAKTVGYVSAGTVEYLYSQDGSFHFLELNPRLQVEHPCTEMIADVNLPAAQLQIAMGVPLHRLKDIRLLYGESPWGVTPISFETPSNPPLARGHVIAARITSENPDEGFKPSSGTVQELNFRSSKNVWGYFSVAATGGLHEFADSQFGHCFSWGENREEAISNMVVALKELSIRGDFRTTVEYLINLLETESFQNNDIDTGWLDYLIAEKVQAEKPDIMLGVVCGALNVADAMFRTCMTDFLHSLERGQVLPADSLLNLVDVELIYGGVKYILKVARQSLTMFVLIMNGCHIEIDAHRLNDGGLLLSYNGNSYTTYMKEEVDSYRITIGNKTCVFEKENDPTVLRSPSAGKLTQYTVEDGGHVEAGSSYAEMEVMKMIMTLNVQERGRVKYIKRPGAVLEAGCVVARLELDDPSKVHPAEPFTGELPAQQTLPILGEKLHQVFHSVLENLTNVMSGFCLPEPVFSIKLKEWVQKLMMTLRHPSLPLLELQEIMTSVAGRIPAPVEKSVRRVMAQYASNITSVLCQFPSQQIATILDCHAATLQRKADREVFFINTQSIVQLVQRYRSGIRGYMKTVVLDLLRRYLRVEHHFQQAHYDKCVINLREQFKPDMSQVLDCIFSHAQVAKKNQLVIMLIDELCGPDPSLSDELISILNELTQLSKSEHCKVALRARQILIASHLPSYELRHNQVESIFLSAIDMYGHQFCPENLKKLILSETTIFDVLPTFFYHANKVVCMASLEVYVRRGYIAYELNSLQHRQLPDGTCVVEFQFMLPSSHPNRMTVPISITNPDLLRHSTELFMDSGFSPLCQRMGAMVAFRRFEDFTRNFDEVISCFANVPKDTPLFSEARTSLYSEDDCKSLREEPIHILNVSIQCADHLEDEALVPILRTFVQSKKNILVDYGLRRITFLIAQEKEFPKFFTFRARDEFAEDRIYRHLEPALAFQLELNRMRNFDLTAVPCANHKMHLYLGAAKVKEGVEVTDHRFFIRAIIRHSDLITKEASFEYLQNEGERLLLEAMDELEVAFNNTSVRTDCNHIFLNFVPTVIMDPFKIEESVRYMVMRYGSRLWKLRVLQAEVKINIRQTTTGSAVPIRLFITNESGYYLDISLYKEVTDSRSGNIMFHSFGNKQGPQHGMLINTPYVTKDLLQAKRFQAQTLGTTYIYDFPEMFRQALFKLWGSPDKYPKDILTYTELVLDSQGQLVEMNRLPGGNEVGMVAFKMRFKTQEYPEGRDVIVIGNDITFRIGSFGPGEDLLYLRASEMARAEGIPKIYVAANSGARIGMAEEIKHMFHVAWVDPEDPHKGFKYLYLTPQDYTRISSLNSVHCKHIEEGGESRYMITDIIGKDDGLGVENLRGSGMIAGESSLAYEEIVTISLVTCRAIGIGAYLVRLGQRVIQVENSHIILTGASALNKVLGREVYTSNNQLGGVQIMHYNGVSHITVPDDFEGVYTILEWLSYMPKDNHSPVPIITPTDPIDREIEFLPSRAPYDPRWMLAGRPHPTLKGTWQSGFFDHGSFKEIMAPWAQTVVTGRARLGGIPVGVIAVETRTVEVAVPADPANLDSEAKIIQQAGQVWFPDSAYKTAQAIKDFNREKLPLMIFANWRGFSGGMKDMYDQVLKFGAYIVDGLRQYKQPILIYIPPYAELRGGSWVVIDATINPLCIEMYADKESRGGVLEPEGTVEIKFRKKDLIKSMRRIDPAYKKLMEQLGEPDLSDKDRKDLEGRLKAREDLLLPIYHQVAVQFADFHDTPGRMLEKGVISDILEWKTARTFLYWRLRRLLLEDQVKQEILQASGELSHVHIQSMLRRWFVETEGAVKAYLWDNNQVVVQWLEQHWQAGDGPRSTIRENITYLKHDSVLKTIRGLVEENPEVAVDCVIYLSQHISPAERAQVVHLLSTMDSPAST

`CC(C)n1ncc2c1C(=O)CC1(CCN(C(=O)c3ccc4c(C(N)=O)c[nH]c4c3)CC1)C2` [Example 1, 6-[(1-isopropyl-7-oxo-1,4,6,7-tetrahydro-1′H-spiro[indazole-5,4′-piperidin]-1′-yl)carbonyl]-1H-indole-3-carboxamide]: the IC50 was found to be 1.4 nM in test [1] and 6 nM in test [2].
For the compound `CC(C)n1ncc2c1C(=O)CC1(CCN(C(=O)c3ccc4[nH]nc(C(N)=O)c4c3)CC1)C2` [Example 2, 5-[(1-isopropyl-7-oxo-1,4,6,7-tetrahydro-1′H-spiro[indazole-5,4′-piperidin]-1′-yl)carbonyl]-1H-indazole-3-carboxamide], the results for the IC50 in test [1] and in test [2] were 3.1 nM and 7.9 nM, respectively.
With `CC(C)n1ncc2c1C(=O)CC1(CCN(C(=O)c3cnc4c(C(N)=O)c[nH]c4c3)CC1)C2` [Example 3, 6-[(1-isopropyl-7-oxo-1,4,6,7-tetrahydro-1′H-spiro[indazole-5,4′-piperidin]-1′-yl)carbonyl]-1H-pyrrolo[3,2-b]pyridine-3-carboxamide], the IC50 in test [1] was found to be 13 nM; in test [2], 32 nM.
For `CC(C)n1ncc2c1C(=O)CC1(CCN(C(=O)c3ccc4c(C(N)=O)n[nH]c4c3)CC1)C2` [Example 4], the IC50 in test [1] was 2.9 nM; in test [2], 6.5 nM.
For `CC(C)n1ncc2c1C(=O)CC1(CCN(C(=O)c3cnc4[nH]cc(C(N)=O)c4c3)CC1)C2` [Example 5], in that order: 5.8 nM and 17 nM.
For `CC(C)n1ncc2c1C(=O)CC1(CCN(C(=O)c3ccc4[nH]cc(C(N)=O)c4c3)CC1)C2` [Example 7], the IC50 turned out to be 1.6 nM in test [1] and 5.6 nM in test [2].
Turning to `CC(C)n1ncc2c1C(=O)CC1(CCN(C(=O)c3ccc4[nH]c(N)nc4c3)CC1)C2` [Example 8], the 50% inhibitory concentration (IC50) in test [1] worked out at 3.3 nM; in test [2] it was 17 nM.
As to `CNC(=O)c1n[nH]c2ccc(C(=O)N3CCC4(CC3)CC(=O)c3c(cnn3C(C)C)C4)cc12` [Example 9], the results for the IC50 in test [1] and in test [2] were 2.9 nM and 8.4 nM, respectively.
`CCNC(=O)c1n[nH]c2ccc(C(=O)N3CCC4(CC3)CC(=O)c3c(cnn3C(C)C)C4)cc12` [Example 10]: the IC50 in test [1] stood at 2.7 nM; in test [2] it was 6.1 nM.
In the same order, the values of `CC(C)n1ncc2c1C(=O)CC1(CCN(C(=O)c3ccc4[nH]nc(C(=O)NCC(F)(F)F)c4c3)CC1)C2` [Example 11] are 5.5 nM and 14 nM.
For the compound `CC(C)n1ncc2c1C(=O)CC1(CCN(C(=O)c3ccc4cc(C(N)=O)[nH]c4c3)CC1)C2` [Example 12], the IC50 in test [1] is 3 nM; in test [2], 13 nM.
As to `CNc1ccc2ccc(C(=O)N3CCC4(CC3)CC(=O)c3c(cnn3C(C)C)C4)cc2n1` [Example 13], the figures for the IC50 in test [1] and in test [2] were 1.5 nM and 2.4 nM, respectively.
`CC(C)n1ncc2c1C(=O)CC1(CCN(C(=O)c3ccc4nc(N)ccc4c3)CC1)C2` [Example 15]: the IC50 in test [1] is 2.6 nM; in test [2], 14 nM.
`CC(C)n1ncc2c1C(=O)CC1(CCN(C(=O)c3cnc4c(Cl)c[nH]c4c3)CC1)C2` [Example 16]: the IC50 was 3.1 nM in test [1] and 6.7 nM in test [2].
As for `CC(C)n1ncc2c1C(=O)CC1(CCN(C(=O)c3ccc4c(C#N)n[nH]c4c3)CC1)C2` [Example 17], the figures for the IC50 in test [1] and in test [2] were 11 nM and 19 nM, respectively.
For `CC(C)n1ncc2c1C(=O)CC1(CCN(C(=O)c3cnc4[nH]nc(C(N)=O)c4c3)CC1)C2` [Example 18, 5-[(1-isopropyl-7-oxo-1,4,6,7-tetrahydro-1′H-spiro[indazole-5,4′-piperidin]-1′-yl)carbonyl]-1H-pyrazolo[3,4-b]pyridine-3-carboxamide], the IC50 was found to be 22 nM in test [1] and 33 nM in test [2].
